Test [1] is described as follows: DPPH (1,1-diphenyl-2-picryl-hydrazyl) test for eliminating free radicals. It is filed as biochemical. Particulars: effective relative concentration c(test compound)/c(DPPH) at which the DPPH free radical was 50% eliminated; methanol, absorption at 515 nm. On the procedure: The activity of the exemplary compounds as free radical-capturing agents was compared with that of conventional free radical-capturing agents. In this connection, use was made of the DPPH (1,1-diphenyl-2-picryl-hydrazyl) test for eliminating free radicals.
DPPH was dissolved in methanol to give a concentration of 100 μmol/l. A series of dilutions of the exemplary compounds, Vitamin C, α-tocopherol and dibutylhydroxytoluene were prepared in methanol. Methanol served as the control. 2500 μl of the DPPH solution were mixed with 500 μl of each test solution and the decrease in the absorption at 515 nm was read until the decrease was less than 2% per hour. The activity of the test substances as free radical-capturing agents was calculated using the following equation:
Activity as free radical-capturing agent (%)=100—(absorption of the test compounds)/(absorption of the control)×100.
For each test compound, the effective relative concentration EC50 (based on the concentration of DPPH which was initially present, EC=c (test compound)/c(DPPH)) of a test compound, i.e. at which the DPPH free radical was 50% eliminated, was calculated from the activity as a free radical-capturing agent (%) in a series of dilutions of test compounds.

A short description of test [2]: Rancimat accelerated autooxidation of lipids by air, squalene. The conditions noted are these: antioxidative index = IP(with test solution)/IP(control sample), squalene purified on alumina type N and stabilized with 1 ppm α-tocopherol. The method, then:
(§1) The activity of the exemplary compounds as antioxidants was compared with that of conventional antioxidants. The accelerated autooxidation of lipids by air with or without antioxidant, as measured using the Rancimat appliance (Rancimat is a registered trademark belonging to Metrohm AG, Herisau, Switzerland) was used as the test system. The exemplary compounds, Vitamin C, α-tocopherol and dibutyihydroxytoluene were dissolved in methanol or acetone, and 100 μl of the respective test solution were added to a previously prepared oil sample weighing 3 g. Solvent only was added to a control sample. A constant, dry stream of air (20 I/h) was blown through the heated oil sample containing the test solution, and the volatile oxidation products (principally short-chain fatty acids such as formic and acetic acid) were collected in a recipient vessel containing water. The conductivity of this aqueous solution was measured and documented continuously. In this connection, the oxidation of (unsaturated) fats proceeds only very slowly for a while and then suddenly increases rapidly. The time which elapses until the increase is termed the induction period (IP). The antioxidative index (AOI) was obtained using the following equation: AOI=IP(with test solution)/IP(control sample). The results for the experiments in soyabean oil at 100° C. and, at 80° C., in squalene, which was purified on alumina type N and stabilized with 1 ppm α-tocopherol, are shown in Table 6: […]

The nature of test [3]: Rancimat accelerated autooxidation of lipids by air, soyabean oil. Particulars: antioxidative index = IP(with test solution)/IP(control sample). The method, then:
as §1

Data on twelve molecules can be found in patent US20020128268A1, “Use of 2-hydrazino-1,3-thiazoles as antioxidants” (priority 2000, published 2002).

With `NNc1nc2cc(S(=O)(=O)O)ccc2s1` [2-Hydrazino-1,3-benzothiazole-5-sulfonic acid], in test [1], the “EC50/ (mol/mol)” value is 0.17 mol/mol.
For the molecule `NNc1nc2ccccc2s1` [2-Hydrazino-1,3-benzothiazole], in test [2], the “AOl in squalene at 80° C. containing 0.005% test substance” value was 97. In addition, in test [1], the “EC50/ (mol/mol)” value was found to be 0.15 mol/mol. Also, in test [3], the “AOl in Soyabean oil at 100° C. containing 0.05% test substance” value was found to be 17.
Taken in the same sequence, the figures for `NNc1nc(-c2ccccc2)cs1` [2-Hydrazino-4-phenyl-1,3-thiazole] were 13, 0.13 mol/mol and 8.5.
In the case of `NNc1nnc(-c2ccc(F)cc2)s1` [2-Hydrazino-5-(4-fluorophenyl)-1,3,4-thiadiazole], in test [2], the “AOl in squalene at 80° C. containing 0.005% test substance” value turned out to be 38. The “EC50/ (mol/mol)” value in test [1] worked out at 0.14 mol/mol. For the same molecule, the “AOl in Soyabean oil at 100° C. containing 0.05% test substance” value in test [3] was 15.
For the molecule `NNc1nc2cccnc2s1` [2-Hydrazino-thiazolo-[5,4-b]pyridine], the “AOl in squalene at 80° C. containing 0.005% test substance” value in test [2] came out at 60. The “EC50/ (mol/mol)” value in test [1] was found to be 0.10 mol/mol.
Regarding `COc1cc2nc(NN)sc2cc1OC` [5,6-Dimethoxy-2-hydrazino-1,3-benzothiazole], the “AOl in squalene at 80° C. containing 0.005% test substance” value in test [2] came out at 24. In test [1], the “EC50/ (mol/mol)” value is 0.12 mol/mol. Further, the “AOl in Soyabean oil at 100° C. containing 0.05% test substance” value in test [3] came out at 4.1.
For the molecule `COc1ccc2nc(NN)sc2c1` [6-Methoxy-2-hydrazino-1,3-benzothiazole], the “AOl in squalene at 80° C. containing 0.005% test substance” value in test [2] was found to be 23. In test [3], the “AOl in Soyabean oil at 100° C. containing 0.05% test substance” value was determined as 24.
In the case of `Cc1ccc2nc(NN)sc2c1` [6-Methyl-2-hydrazino-1,3-benzothiazole], the “AOl in squalene at 80° C. containing 0.005% test substance” value in test [2] is recorded as 67. Further, the “EC50/ (mol/mol)” value in test [1] is on record as 0.28 mol/mol. Further, in test [3], the “AOl in Soyabean oil at 100° C. containing 0.05% test substance” value was 2.4.
For `CC(C)(C)c1ccc2nc(NN)sc2c1` [6-tert.-Butyl-2-hydrazino-1,3-benzothiazole], in that order: 14, 0.15 mol/mol and 6.
Taken in the same sequence, the figures for `Cc1cc(C(C)(C)C)c(O)c(C(C)(C)C)c1` [Dibutylhydroxytoluene, reference compound] were 38, 0.24 mol/mol and 4.8.
Regarding `O=C1O[C@H]([C@@H](O)CO)C(O)=C1O` [Vitamin C, reference compound], in test [2], the “AOl in squalene at 80° C. containing 0.005% test substance” value stood at 0.7. For the same molecule, in test [1], the “EC50/ (mol/mol)” value came to 0.27 mol/mol. Also, the “AOl in Soyabean oil at 100° C. containing 0.05% test substance” value in test [3] is on record as 1.2.
Taken in the same sequence, the figures for `Cc1c(C)c2c(c(C)c1O)CC[C@@](C)(CCC[C@H](C)CCC[C@H](C)CCCC(C)C)O2` [α-Tocopherol, reference compound] were 39, 0.25 mol/mol and 5.1.
